Experimental data from publication PMC11012124, “Synthesis of Novel Triazine-Based Chalcones and 8,9-dihydro-7H-pyrimido[4,5-b][1,4]diazepines as Potential Leads in the Search of Anticancer, Antibacterial and Antifungal Agents” (International Journal of Molecular Sciences, 2024).
In brackets after ≈: the same amount, converted by molar mass.

Assays:
[1] = tested on: M. tuberculosis ATCC 27294; assay: Antitubercular broth microdilution MIC; type: cell-based; settings: Mycobacterium tuberculosis; M. tuberculosis ATCC 27294 (H37Rv); read-out: Minimum inhibitory concentration (MIC)
[2] = Hemolytic activity, spectrophotometric; type: cell-based, human; settings: human, human red blood cells (huRBC), 5% hematocrit, 200 μg/mL, 37 °C
[3] = tested on: K-562; assay: cells; settings: Homo sapiens, K562, 48 h; for GI50: K-562, 48 h; for CC50: read-out: LC50
[4] = tested on: MOLT-4; assay: cells; settings: Homo sapiens, MOLT-4, 48 h; for CC50: read-out: LC50
[5] = tested on: SR; assay: cells; settings: Homo sapiens, 48 h; for CC50: read-out: LC50
[6] = tested on: HOP-92; assay: cells; settings: Homo sapiens, HOP-92, 48 h; for CC50: read-out: LC50
[7] = tested on: NCI-H522; assay: cells; settings: Homo sapiens, NCI-H522, 48 h; for CC50: read-out: LC50
[8] = tested on: HCC-2998; assay: cells; settings: Homo sapiens, HCC 2998, 48 h; for CC50: read-out: LC50
[9] = tested on: HT29; assay: cells; settings: Homo sapiens, HT-29, 48 h; for CC50: read-out: LC50
[10] = tested on: SF-539; assay: cells; settings: Homo sapiens, SF-539, 48 h; for CC50: read-out: LC50, SF-539, 48 h
[11] = tested on: LOX IMVI; assay: cells; settings: Homo sapiens, 48 h; for CC50: read-out: LC50, LOX IMVI, 48 h
[12] = tested on: UACC-62; assay: cells; settings: Homo sapiens, UACC-62, 48 h; for CC50: read-out: LC50
[13] = tested on: OVCAR-3; assay: cells; settings: Homo sapiens, OVCAR-3, 48 h; for CC50: read-out: LC50
[14] = tested on: NCI/ADR-RES; assay: cells; settings: Homo sapiens, 48 h; for CC50: read-out: LC50
[15] = tested on: SK-OV-3; assay: cells; settings: Homo sapiens, SK-OV-3, 48 h; for CC50: read-out: LC50
[16] = tested on: A498; assay: cells; settings: Homo sapiens, A498, 48 h; for CC50: read-out: LC50
[17] = tested on: CAKI-1; assay: cells; settings: Homo sapiens, CAKI-1, 48 h; for CC50: read-out: LC50
[18] = tested on: RXF 393; assay: cells; settings: Homo sapiens, RXF 393, 48 h; for CC50: read-out: LC50
[19] = tested on: TK-10; assay: cells; settings: Homo sapiens, TK-10, 48 h; for CC50: read-out: LC50
[20] = tested on: PC-3; assay: cells; settings: Homo sapiens, PC-3, 48 h; for CC50: read-out: LC50
[21] = tested on: DU-145; assay: cells; settings: Homo sapiens, DU-145, 48 h; for CC50: read-out: LC50
[22] = tested on: MCF7; assay: cells; settings: Homo sapiens, MCF7, 48 h; for CC50: read-out: LC50
[23] = tested on: MDA-MB-231/ATCC; assay: cells; settings: Homo sapiens, MDA-MB-231, 48 h; for CC50: read-out: LC50
[24] = tested on: HS 578T; assay: cells; settings: Homo sapiens, 48 h; for CC50: read-out: LC50
[25] = tested on: T-47D; assay: cells; settings: Homo sapiens, T47D, 48 h; for CC50: read-out: LC50
[26] = tested on: MDA-MB-468; assay: cells; settings: Homo sapiens, MDA-MB-468, 48 h; for CC50: read-out: LC50

## CN(C)c1nc(NCCNS(=O)(=O)c2ccc(C(=O)/C=C/c3ccccc3)cc2)nc(Nc2ccc(F)cc2)n1 [24a]
[1]
  MIC: 25 µg/mL (≈ 44.5 µM)
[2]
  hemolysis at 24 h, 200 µg/mL: 10.6%
[3]
  GI50: 3.34 µM
  CC50: > 100 µM
[4]
  GI50: 3.22 µM
  CC50: > 100 µM
[5]
  GI50: 2.58 µM
  CC50: > 100 µM
[6]
  GI50: 8.1 µM
  CC50: 60.1 µM
[7]
  GI50: 5.47 µM
  CC50: 53.6 µM
[8]
  GI50: 2.35 µM
  CC50: 17.9 µM
[9]
  GI50: 3.08 µM
  CC50: 73.5 µM
[10]
  GI50: 12 µM
  CC50: 50.2 µM
[11]
  GI50: 2.47 µM
  CC50: 27.4 µM
[12]
  GI50: 6.68 µM
  CC50: 46.9 µM
[13]
  GI50: 8.59 µM
  CC50: 48.7 µM
[14]
  GI50: 7.33 µM
  CC50: 50.3 µM
[15]
  GI50: 13 µM
  CC50: 68.1 µM
[16]
  GI50: 11.6 µM
  CC50: 49.7 µM
[17]
  GI50: 4.75 µM
  CC50: 52.6 µM
[18]
  GI50: 2.94 µM
  CC50: 39.9 µM
[19]
  GI50: 14.6 µM
  CC50: 65.5 µM
[20]
  GI50: 4.39 µM
  CC50: > 100 µM
[21]
  GI50: 12.1 µM
  CC50: 53.2 µM
[22]
  GI50: 1.99 µM
  CC50: 8.23 µM
[23]
  GI50: 4.84 µM
  CC50: 45.8 µM
[24]
  GI50: 7.39 µM
  CC50: > 100 µM
[25]
  GI50: 3.45 µM
  CC50: 41.7 µM
[26]
  GI50: 2.84 µM
  CC50: 37.6 µM

## COc1cc(/C=C/C(=O)c2ccc(S(=O)(=O)NCCNc3nc(Nc4ccc(F)cc4)nc(N(C)C)n3)cc2)cc(OC)c1OC [24d]
[1]
  MIC: 50 µg/mL (≈ 76.7 µM)
[2]
  hemolysis at 24 h, 200 µg/mL: 2.3%
[3]
  GI50: 2.73 µM
  CC50: > 100 µM
[4]
  GI50: 2.74 µM
  CC50: > 100 µM
[5]
  GI50: 2.42 µM
  CC50: > 100 µM
[6]
  GI50: 11.5 µM
  CC50: > 100 µM
[7]
  GI50: 6.45 µM
  CC50: 50 µM
[8]
  GI50: 1.62 µM
  CC50: 5.52 µM
[9]
  GI50: 1.93 µM
  CC50: 6.46 µM
[10]
  GI50: 1.71 µM
  CC50: 5.93 µM
[11]
  GI50: 1.71 µM
  CC50: 5.62 µM
[12]
  GI50: 8.28 µM
  CC50: 48.8 µM
[13]
  GI50: 6.18 µM
  CC50: 98.4 µM
[14]
  GI50: 3.38 µM
  CC50: 56.3 µM
[15]
  GI50: 21.8 µM
  CC50: > 100 µM
[16]
  GI50: 11.3 µM
  CC50: 50.3 µM
[17]
  GI50: 5.2 µM
  CC50: > 100 µM
[18]
  GI50: 1.45 µM
  CC50: 6.74 µM
[19]
  GI50: 13.1 µM
  CC50: > 100 µM
[20]
  GI50: 3.22 µM
  CC50: > 100 µM
[21]
  GI50: 10.9 µM
  CC50: > 100 µM
[22]
  GI50: 1.96 µM
  CC50: 9.34 µM
[23]
  GI50: 4.41 µM
  CC50: 83.4 µM
[24]
  GI50: 8.24 µM
  CC50: > 100 µM
[25]
  GI50: 3.48 µM
  CC50: > 100 µM
[26]
  GI50: 2 µM
  CC50: 11.5 µM

## Cc1ccc(/C=C/C(=O)c2ccc(S(=O)(=O)NCCNc3nc(Nc4ccc(F)cc4)nc(N(C)C)n3)cc2)cc1 [24b]
[1]
  MIC: 25 µg/mL (≈ 43.4 µM)
[2]
  hemolysis at 24 h, 200 µg/mL: 1.2%
[3]
  GI50: 3.89 µM
  CC50: > 100 µM
[4]
  GI50: 3.86 µM
  CC50: > 100 µM
[5]
  GI50: 2.76 µM
  CC50: > 100 µM
[6]
  GI50: 7.63 µM
  CC50: 54 µM
[7]
  GI50: 5.24 µM
  CC50: 45.3 µM
[8]
  GI50: 4.5 µM
  CC50: 41 µM
[9]
  GI50: 2.38 µM
  CC50: 16.2 µM
[10]
  GI50: 13 µM
  CC50: 51.7 µM
[11]
  GI50: 4.12 µM
  CC50: 39.3 µM
[12]
  GI50: 8.4 µM
  CC50: 47.1 µM
[13]
  GI50: 11.3 µM
  CC50: 54.6 µM
[14]
  GI50: 8.4 µM
  CC50: 47.1 µM
[15]
  GI50: 17 µM
  CC50: > 100 µM
[16]
  GI50: 12.6 µM
  CC50: 51.4 µM
[17]
  GI50: 6.98 µM
  CC50: 58 µM
[18]
  GI50: 4.98 µM
  CC50: 44.9 µM
[19]
  GI50: 15.2 µM
  CC50: 61.9 µM
[20]
  GI50: 3.54 µM
  CC50: 89.5 µM
[21]
  GI50: 14 µM
  CC50: 74.8 µM
[22]
  GI50: 2.01 µM
  CC50: 25.2 µM
[23]
  GI50: 6.56 µM
  CC50: 48 µM
[24]
  GI50: 10.7 µM
  CC50: > 100 µM
[25]
  GI50: 3.86 µM
  CC50: 52.7 µM
[26]
  GI50: 4.66 µM
  CC50: 43 µM
